#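 Five concentrations, 48 hours, 96-well plates. At the TGI there is no net growth.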
# Test system: SW-620 colon
# Assay: DTP human tumour cell line panel, 48 h
row,Compound,TGI
1,Cc1ccc(S(=O)(=O)c2[nH]cc(/C(=C\C3CCCCC3)[N+](=O)[O-])c2C2CCCCC2)cc1,3.67 µM
2,O=C1C=CC(=O)c2c1ccc1c3ccccc3n(CCCCCn3c4ccccc4c4ccc5c(c43)C(=O)C=CC5=O)c21,26.8 µM
3,C=C(Cl)C(=CCl)CCC(Br)C(C)(C)Cl (mixture of isomers),> 10 µM
4,Nc1ccc2c(c1)C(=O)N1CCC[C@H]1C(=O)N2,> 100 µM
5,Cc1ccc(/C=N/Nc2cc(C)c3cccc(C)c3n2)s1,> 100 µM
6,CC(=O)N(C(C)=O)c1ncc(-n2nc(-c3ccccc3)cc2-c2ccccc2)c(-c2ccccc2)n1,> 10 µM
7,CN1C(=O)c2ccccc2OC12C=Cc1c(ccc3ccccc13)O2 (stereo not drawn),> 72.6 µM
8,CO/N=C(\C(=O)OC(=NC1CCCCC1)NC1CCCCC1)c1csc(NC(c2ccccc2)(c2ccccc2)c2ccccc2)n1,> 10 µM
9,O=C1Sc2cc3ccccc3cc2C(=O)Sc2ccc(Br)cc21,14.2 µM
10,Cc1ccc2c(c1)C(=S)N1CSCC1c1nncn1-2 (stereo not drawn),> 100 µM
11,CC(C)NC(=O)OCc1c(COC(=O)NC(C)C)c(-c2cc[n+](COC(=O)C3CC3)cc2)n2c1CCC2,> 100 µM
12,COC(=O)C1=C(C(=O)OC)N(c2ccc(OC)cc2[N+](=O)[O-])C(c2ccc(C)cc2)=CC1c1ccc(OC)cc1OC (stereo not drawn),19.2 µM
13,COc1cccc(C2c3cc4c(cc3OC(N3CCCCC3)C2C)OCO4)c1O (stereo not drawn),> 87.8 µM
14,O=C1c2ccccc2C(=O)c2c(NCC(O)CO)ccc(NCC(O)CO)c21 (stereo not drawn),> 100 µM
15,CC1=C(C)CC2C(=O)N(c3cc(C(C)(C)C)ccc3C(C)(C)C)C(=O)C2C1 (stereo not drawn),> 100 µM
16,O=[N+]([O-])c1ccc(CN(CCCl)OCCCl)cc1,> 100 µM
17,O=c1[nH]cnc2c1cnn2Cc1cn(CCCCO)nn1,> 100 µM
18,C/C=C/C(CC(O)(C(F)(F)F)C(F)(F)F)=N/NC(N)=S,> 10 µM
19,O=C1/C(=C/c2ccc(Br)s2)NC(=S)N1c1ccccc1,> 100 µM
20,CN1CCc2c([nH]c3ccccc23)C1,> 100 µM
21,O=C(N/N=C(\c1ccccc1)c1ccccn1)NC1CCCCC1,> 100 µM
22,CCO/C(O)=C(/C(=N)N1CCOCC1)C(=O)Nc1ccc(F)cc1,> 100 µM
23,COc1cc(Nc2nc3ccccc3nc2C(=O)O)cc(OC)c1OC,> 100 µM

# Test system: CAKI-1 renal
# Assay: DTP human tumour cell line panel, 48 h
row,Compound,TGI
1,Cc1ccc(S(=O)(=O)c2[nH]cc(/C(=C\C3CCCCC3)[N+](=O)[O-])c2C2CCCCC2)cc1,0.531 µM
2,O=C1C=CC(=O)c2c1ccc1c3ccccc3n(CCCCCn3c4ccccc4c4ccc5c(c43)C(=O)C=CC5=O)c21,13.7 µM
3,C=C(Cl)C(=CCl)CCC(Br)C(C)(C)Cl (mixture of isomers),> 10 µM
4,Nc1ccc2c(c1)C(=O)N1CCC[C@H]1C(=O)N2,> 100 µM
5,Cc1ccc(/C=N/Nc2cc(C)c3cccc(C)c3n2)s1,> 100 µM
6,CC(=O)N(C(C)=O)c1ncc(-n2nc(-c3ccccc3)cc2-c2ccccc2)c(-c2ccccc2)n1,> 10 µM
7,CN1C(=O)c2ccccc2OC12C=Cc1c(ccc3ccccc13)O2 (stereo not drawn),33.3 µM
8,CO/N=C(\C(=O)OC(=NC1CCCCC1)NC1CCCCC1)c1csc(NC(c2ccccc2)(c2ccccc2)c2ccccc2)n1,> 10 µM
9,O=C1Sc2cc3ccccc3cc2C(=O)Sc2ccc(Br)cc21,14.8 µM
10,Cc1ccc2c(c1)C(=S)N1CSCC1c1nncn1-2 (stereo not drawn),> 100 µM
11,CC(C)NC(=O)OCc1c(COC(=O)NC(C)C)c(-c2cc[n+](COC(=O)C3CC3)cc2)n2c1CCC2,> 100 µM
12,COC(=O)C1=C(C(=O)OC)N(c2ccc(OC)cc2[N+](=O)[O-])C(c2ccc(C)cc2)=CC1c1ccc(OC)cc1OC (stereo not drawn),> 92.4 µM
13,COc1cccc(C2c3cc4c(cc3OC(N3CCCCC3)C2C)OCO4)c1O (stereo not drawn),> 53 µM
14,O=C1c2ccccc2C(=O)c2c(NCC(O)CO)ccc(NCC(O)CO)c21 (stereo not drawn),> 100 µM
15,CC1=C(C)CC2C(=O)N(c3cc(C(C)(C)C)ccc3C(C)(C)C)C(=O)C2C1 (stereo not drawn),> 100 µM
16,O=[N+]([O-])c1ccc(CN(CCCl)OCCCl)cc1,> 100 µM
17,CC1=NN(c2nc(N)nc(/C(C#N)=C\c3ccc([N+](=O)[O-])s3)n2)C(C)(C)C1,> 21 µM
18,O=c1[nH]cnc2c1cnn2Cc1cn(CCCCO)nn1,> 100 µM
19,C/C=C/C(CC(O)(C(F)(F)F)C(F)(F)F)=N/NC(N)=S,> 10 µM
20,O=C1/C(=C/c2ccc(Br)s2)NC(=S)N1c1ccccc1,> 100 µM
21,CN1CCc2c([nH]c3ccccc23)C1,> 100 µM
22,O=C(N/N=C(\c1ccccc1)c1ccccn1)NC1CCCCC1,> 100 µM
23,CCO/C(O)=C(/C(=N)N1CCOCC1)C(=O)Nc1ccc(F)cc1,> 100 µM
24,COc1cc(Nc2nc3ccccc3nc2C(=O)O)cc(OC)c1OC,76.4 µM

# Test system: HT29 colon
# Assay: DTP human tumour cell line panel, 48 h
row,Compound,TGI
1,Cc1ccc(S(=O)(=O)c2[nH]cc(/C(=C\C3CCCCC3)[N+](=O)[O-])c2C2CCCCC2)cc1,> 100 µM
2,O=C1C=CC(=O)c2c1ccc1c3ccccc3n(CCCCCn3c4ccccc4c4ccc5c(c43)C(=O)C=CC5=O)c21,85.5 µM
3,C=C(Cl)C(=CCl)CCC(Br)C(C)(C)Cl (mixture of isomers),> 10 µM
4,Nc1ccc2c(c1)C(=O)N1CCC[C@H]1C(=O)N2,> 100 µM
5,Cc1ccc(/C=N/Nc2cc(C)c3cccc(C)c3n2)s1,13 µM
6,CC(=O)N(C(C)=O)c1ncc(-n2nc(-c3ccccc3)cc2-c2ccccc2)c(-c2ccccc2)n1,> 10 µM
7,CN1C(=O)c2ccccc2OC12C=Cc1c(ccc3ccccc13)O2 (stereo not drawn),10.3 µM
8,CO/N=C(\C(=O)OC(=NC1CCCCC1)NC1CCCCC1)c1csc(NC(c2ccccc2)(c2ccccc2)c2ccccc2)n1,> 10 µM
9,O=C1Sc2cc3ccccc3cc2C(=O)Sc2ccc(Br)cc21,13.1 µM
10,Cc1ccc2c(c1)C(=S)N1CSCC1c1nncn1-2 (stereo not drawn),> 100 µM
11,CC(C)NC(=O)OCc1c(COC(=O)NC(C)C)c(-c2cc[n+](COC(=O)C3CC3)cc2)n2c1CCC2,> 100 µM
12,COC(=O)C1=C(C(=O)OC)N(c2ccc(OC)cc2[N+](=O)[O-])C(c2ccc(C)cc2)=CC1c1ccc(OC)cc1OC (stereo not drawn),> 100 µM
13,COc1cccc(C2c3cc4c(cc3OC(N3CCCCC3)C2C)OCO4)c1O (stereo not drawn),13.3 µM
14,O=C1c2ccccc2C(=O)c2c(NCC(O)CO)ccc(NCC(O)CO)c21 (stereo not drawn),> 100 µM
15,CC1=C(C)CC2C(=O)N(c3cc(C(C)(C)C)ccc3C(C)(C)C)C(=O)C2C1 (stereo not drawn),> 100 µM
16,O=[N+]([O-])c1ccc(CN(CCCl)OCCCl)cc1,> 100 µM
17,CC1=NN(c2nc(N)nc(/C(C#N)=C\c3ccc([N+](=O)[O-])s3)n2)C(C)(C)C1,0.722 µM
18,O=c1[nH]cnc2c1cnn2Cc1cn(CCCCO)nn1,> 100 µM
19,C/C=C/C(CC(O)(C(F)(F)F)C(F)(F)F)=N/NC(N)=S,> 10 µM
20,O=C1/C(=C/c2ccc(Br)s2)NC(=S)N1c1ccccc1,> 100 µM
21,CN1CCc2c([nH]c3ccccc23)C1,> 100 µM
22,O=C(N/N=C(\c1ccccc1)c1ccccn1)NC1CCCCC1,> 100 µM
23,CCO/C(O)=C(/C(=N)N1CCOCC1)C(=O)Nc1ccc(F)cc1,> 100 µM

# Test system: RPMI-8226 leukemia
# Assay: DTP human tumour cell line panel, 48 h
row,Compound,TGI
1,Cc1ccc(S(=O)(=O)c2[nH]cc(/C(=C\C3CCCCC3)[N+](=O)[O-])c2C2CCCCC2)cc1,0.715 µM
2,O=C1C=CC(=O)c2c1ccc1c3ccccc3n(CCCCCn3c4ccccc4c4ccc5c(c43)C(=O)C=CC5=O)c21,18.8 µM
3,C=C(Cl)C(=CCl)CCC(Br)C(C)(C)Cl (mixture of isomers),> 10 µM
4,Nc1ccc2c(c1)C(=O)N1CCC[C@H]1C(=O)N2,> 100 µM
5,Cc1ccc(/C=N/Nc2cc(C)c3cccc(C)c3n2)s1,67.4 µM
6,CC(=O)N(C(C)=O)c1ncc(-n2nc(-c3ccccc3)cc2-c2ccccc2)c(-c2ccccc2)n1,> 10 µM
7,CN1C(=O)c2ccccc2OC12C=Cc1c(ccc3ccccc13)O2 (stereo not drawn),> 71.9 µM
8,CO/N=C(\C(=O)OC(=NC1CCCCC1)NC1CCCCC1)c1csc(NC(c2ccccc2)(c2ccccc2)c2ccccc2)n1,> 10 µM
9,O=C1Sc2cc3ccccc3cc2C(=O)Sc2ccc(Br)cc21,> 100 µM
10,Cc1ccc2c(c1)C(=S)N1CSCC1c1nncn1-2 (stereo not drawn),> 100 µM
11,CC(C)NC(=O)OCc1c(COC(=O)NC(C)C)c(-c2cc[n+](COC(=O)C3CC3)cc2)n2c1CCC2,> 100 µM
12,COC(=O)C1=C(C(=O)OC)N(c2ccc(OC)cc2[N+](=O)[O-])C(c2ccc(C)cc2)=CC1c1ccc(OC)cc1OC (stereo not drawn),6.07 µM
13,COc1cccc(C2c3cc4c(cc3OC(N3CCCCC3)C2C)OCO4)c1O (stereo not drawn),12.3 µM
14,O=C1c2ccccc2C(=O)c2c(NCC(O)CO)ccc(NCC(O)CO)c21 (stereo not drawn),> 100 µM
15,CC1=C(C)CC2C(=O)N(c3cc(C(C)(C)C)ccc3C(C)(C)C)C(=O)C2C1 (stereo not drawn),> 100 µM
16,O=[N+]([O-])c1ccc(CN(CCCl)OCCCl)cc1,> 100 µM
17,CC1=NN(c2nc(N)nc(/C(C#N)=C\c3ccc([N+](=O)[O-])s3)n2)C(C)(C)C1,0.0872 µM
18,O=c1[nH]cnc2c1cnn2Cc1cn(CCCCO)nn1,> 100 µM
19,C/C=C/C(CC(O)(C(F)(F)F)C(F)(F)F)=N/NC(N)=S,> 10 µM
20,O=C1/C(=C/c2ccc(Br)s2)NC(=S)N1c1ccccc1,85.1 µM
21,CN1CCc2c([nH]c3ccccc23)C1,> 100 µM
22,O=C(N/N=C(\c1ccccc1)c1ccccn1)NC1CCCCC1,> 100 µM
23,CCO/C(O)=C(/C(=N)N1CCOCC1)C(=O)Nc1ccc(F)cc1,> 100 µM
24,COc1cc(Nc2nc3ccccc3nc2C(=O)O)cc(OC)c1OC,> 100 µM

# Test system: SK-MEL-5 melanoma
# Assay: DTP human tumour cell line panel, 48 h
row,Compound,TGI
1,Cc1ccc(S(=O)(=O)c2[nH]cc(/C(=C\C3CCCCC3)[N+](=O)[O-])c2C2CCCCC2)cc1,1.21 µM
2,O=C1C=CC(=O)c2c1ccc1c3ccccc3n(CCCCCn3c4ccccc4c4ccc5c(c43)C(=O)C=CC5=O)c21,> 86.1 µM
3,C=C(Cl)C(=CCl)CCC(Br)C(C)(C)Cl (mixture of isomers),> 10 µM
4,Nc1ccc2c(c1)C(=O)N1CCC[C@H]1C(=O)N2,> 100 µM
5,Cc1ccc(/C=N/Nc2cc(C)c3cccc(C)c3n2)s1,23.9 µM
6,CC(=O)N(C(C)=O)c1ncc(-n2nc(-c3ccccc3)cc2-c2ccccc2)c(-c2ccccc2)n1,> 10 µM
7,CN1C(=O)c2ccccc2OC12C=Cc1c(ccc3ccccc13)O2 (stereo not drawn),23 µM
8,CO/N=C(\C(=O)OC(=NC1CCCCC1)NC1CCCCC1)c1csc(NC(c2ccccc2)(c2ccccc2)c2ccccc2)n1,> 10 µM
9,O=C1Sc2cc3ccccc3cc2C(=O)Sc2ccc(Br)cc21,27.5 µM
10,Cc1ccc2c(c1)C(=S)N1CSCC1c1nncn1-2 (stereo not drawn),> 100 µM
11,CC(C)NC(=O)OCc1c(COC(=O)NC(C)C)c(-c2cc[n+](COC(=O)C3CC3)cc2)n2c1CCC2,> 100 µM
12,COC(=O)C1=C(C(=O)OC)N(c2ccc(OC)cc2[N+](=O)[O-])C(c2ccc(C)cc2)=CC1c1ccc(OC)cc1OC (stereo not drawn),> 100 µM
13,COc1cccc(C2c3cc4c(cc3OC(N3CCCCC3)C2C)OCO4)c1O (stereo not drawn),16.3 µM
14,O=C1c2ccccc2C(=O)c2c(NCC(O)CO)ccc(NCC(O)CO)c21 (stereo not drawn),> 100 µM
15,CC1=C(C)CC2C(=O)N(c3cc(C(C)(C)C)ccc3C(C)(C)C)C(=O)C2C1 (stereo not drawn),> 100 µM
16,O=[N+]([O-])c1ccc(CN(CCCl)OCCCl)cc1,> 100 µM
17,CC1=NN(c2nc(N)nc(/C(C#N)=C\c3ccc([N+](=O)[O-])s3)n2)C(C)(C)C1,1.84 µM
18,O=c1[nH]cnc2c1cnn2Cc1cn(CCCCO)nn1,> 100 µM
19,C/C=C/C(CC(O)(C(F)(F)F)C(F)(F)F)=N/NC(N)=S,> 10 µM
20,O=C1/C(=C/c2ccc(Br)s2)NC(=S)N1c1ccccc1,> 100 µM
21,CN1CCc2c([nH]c3ccccc23)C1,> 100 µM
22,O=C(N/N=C(\c1ccccc1)c1ccccn1)NC1CCCCC1,> 100 µM
23,COc1cc(Nc2nc3ccccc3nc2C(=O)O)cc(OC)c1OC,> 100 µM

# Test system: HCC-2998 colon
# Assay: DTP human tumour cell line panel, 48 h
row,Compound,TGI
1,Cc1ccc(S(=O)(=O)c2[nH]cc(/C(=C\C3CCCCC3)[N+](=O)[O-])c2C2CCCCC2)cc1,0.485 µM

# — PubChem BioAssay (NCI)
